Reference: patent US6500405B1, “Use of certain amides as probes for detection of antitubulin activity and resistance monitoring” (Dow AgroSciences LLC, priority 1996, dated 2002)

Key:
isolated bovine tubulin = experiment: Binding assay, tritiated compound 1 as probe, isolated bovine tubulin; conditions: 100 μM final concentration; 10 μM tubulin; 30 minutes preincubation, 120 minutes with tritiated compound 1 at 37° C.
Description: Assay mixtures contained 10 μM isolated tubulin in 1.0 M sodium glutamate, pH 6.6 containing 1 mM MgCl2, and 2.5 μDMSO (control) or 2.5 μl of test compound dissolved in DMSO in 0.5 ml polypropylene tubes. Mixtures were incubated at 37° C. for 30 minutes, then 2.5 μl of a 640 μM solution of tritium-labeled compound 1 in DMSO was added. After further incubation at 37° C. for 120 minutes, aliquots (80 μl) of the assay mixtures were applied to 2.3 cm diameter Whatman 3MM filter paper disks, which were dried for 15 seconds under warm air, immersed in 3 ml of ice-cold 10% trichloroacetic acid, and left overnight at 4° C. Disks were transferred to 5% trichloroacetic acid for 30 minutes, washed twice more in 5% trichloroacetic acid, washed for 30 minutes at 37° C. in ethanol/ether (1:1, v/v), then for 15 min at room temperature in ethanol/ether (1:1, v/v), and finally in two successive washes for 15 minutes each in ether at room temperature. The disks were dried, transferred to scintillation vials containing 10 ml of Hydrofluor™ and counted in a scintillation counter.

[1] = tested on: tubulin in colon cancer cell line HCT-116; experiment: Whole cell binding assay, tritiated S-enantiomer of compound 2 as probe, colon cancer cell line HCT-116; conditions: for Binding of radioligand (% control): HCT-116, 1 hour preincubation, 1 hour with radioligand; for Effect on binding of the radioligand (in words): HCT-116, tritiated S-enantiomer of compound 2
Description: Effect of antitubulin compounds on binding of the tritiated S-enantiomer of compound 2 to tubulin in a whole cell binding assay using the colon cancer cell line HCT-116 is shown by this example.
The colon cancer cell line HCT-116 (obtained from the American Type Culture Collection) was cultured in 75 cm^2 flasks containing McCoy's 5a Modified Medium with 10% heat-inactivated fetal bovine serum, 50 U/ml of penicillin G and 50 U/ml of streptomycin sulfate. A cell suspension was prepared by trypsinization of the culture, and adjusted to a density of 10^6 cells/ml by dilution into incomplete medium (medium lacking serum, penicillin G and streptomycin). Aliquots (150 μl) of cell suspension were added to wells of 96-well glass fiber filter plates (Millipore Multiscreen® plates, 1 μm glass fiber, Type B). Wells then received 30 μl of a solution of the test antitubulin compound in incomplete medium/DMSO mixture (8.5:1, v/v) or 30 μl of the incomplete medium/DMSO mixture alone (control). After mixing, the plates were incubated at 37° C. for 1 hour, then 25 μl of 0.8 μM tritium-labeled S-enantiomer of compound 2 was added to each well. After mixing, the plates were incubated at 37° C. for 1 hour, then binding of the radioligand to tubulin was stopped by adding 50 μl of 100 μM unlabeled compound 2. The fluid was removed from the plate by vacuum filtration through the glass fiber, then 100 μl of ice-cold 10% trichloroacetic acid was added to each well. The plates were incubated for 1 h at 4° C., then the fluid was removed by filtration. Ice-cold ethanol (250 μl) was added to each well, the plates incubated for 1 h at 4° C., then the ethanol was removed by filtration. Wells were washed 4 more times with 250 μl of ice-cold ethanol. After drying the plates at 37° C. for 20 min, the glass fiber filters were punched out of the wells into scintillation vials, 5 ml of scintillation fluid was added to each vial, and the samples were counted in a scintillation counter to determine the amount of bound radioactivity. The effects of different antitubulin compounds on binding of the radioligand are presented in Table 11 with the amounts of radioligand bound in the presence of each antitubulin compound expressed as a percentage of the amount of radioligand bound in the control.

plant tubulin = conditions: cited from earlier work
brain tubulin = conditions: cited from earlier work
tubulin = experiment: Binding of S versus R enantiomers to tubulin; conditions: S enantiomer versus corresponding R enantiomer

SMILES | Binding (% control) (isolated bovine tubulin) | Binding of radioligand (% control) ([1]; 0.1 μM) | Binding of radioligand (% control) ([1]; 1 μM) | Binding of radioligand (% control) ([1]; 10 μM) | Binding of radioligand (% control) ([1]; 100 μM) | Effect on binding of the radioligand (in words) [1] | Inhibition of plant tubulin polymerization (plant tubulin) | Inhibition of brain tubulin polymerization (brain tubulin) | Binding of the S enantiomer to tubulin compared with the R enantiomer (tubulin) | melting point
COC(=O)Nc1nc2ccc(C(=O)c3cccs3)cc2[nH]1 [Nocodazole, nocodazole] | 31.3 % control | 102 % control | 99 % control | 74 % control | 44 % control | reduced binding of the radioligand |  |  |  | 
COP(=S)(NC(C)C)Oc1ccc(C)cc1[N+](=O)[O-] (stereo not shown) [amiprophosmethyl] |  |  |  |  |  |  | inhibit the polymerization of plant tubulin | not brain tubulin |  | 
CC[C@]1(O)C[C@@H]2CN(CCc3c([nH]c4ccccc34)[C@@](C(=O)OC)(c3cc4c(cc3OC)N(C)[C@H]3[C@@](O)(C(=O)OC)[C@H](OC(C)=O)[C@]5(CC)C=CCN6CC[C@]43[C@@H]65)C2)C1 [Vinblastine, vinblastine] | 90.7 % control | 155 % control | 218 % control | 286 % control | 323 % control | increased binding of the radioligand |  |  |  | 
COc1cc([C@@H]2c3cc4c(cc3[C@H](O)[C@H]3COC(=O)[C@H]23)OCO4)cc(OC)c1OC [Podophyllotoxin, podophyllotoxin] | 21.7 % control | 37 % control | 0 % control | 0 % control | 0 % control | reduced binding of the radioligand |  |  |  | 
CCC(C)(NC(=O)c1cc(Cl)c(N)c(C=NOC)c1)C(=O)CCl (stereo not shown) [Compound 2, 4-amino-3-chloro-5-methoxyiminomethyl-N-(3-chloro-1-ethyl-1-methyl-2-oxopropyl)benzamide] |  |  |  |  |  |  |  |  | bind more effectively to tubulin | 140 to 141 °C
